Measured values: paper PMC10111413 (ACS Infectious Diseases, 2023)
Values after ≈ are worked out from the molar mass of the structure shown. Where a SMILES comes first, the peptide text is derived from it. Bridges are numbered along the chain shown (N, C = ends). [ ]: non-standard residue; d: D form. The star is where a group is joined. ξ: configuration not given here. Hexanoyl(4ξ-Me) = CCC(C)CCC(=O)*; dOrn = NCCC[C@@H](N)C(=O)O; Orn = NCCC[C@H](N)C(=O)O

Legend:
E. coli ATCC 25922 mcr-1 = format: cell-based; conditions: CLSI microbroth dilution, Mueller Hinton broth, 18 h at 37 °C, visual read-out, three technical replicates; mcr-1 colistin resistance plasmid
Experimental: (§1) The antibacterial activities of relacidine A (3a) and B (4a), along with diastereomers 3b and 4b–d and relacidamide (5), were assessed using a standard microbroth dilution assay to establish minimum inhibitory concentration (MIC) values against a panel of Gram-negative bacteria (Table 1). The MIC values measured for synthetic relacidine A (3a) and B (4a) agree well with those previously published.[9] […] Relacidine A (3a) and B (4a), as well as relacidamide (5), were further tested against a panel of colistin-resistant A. baumannii clinical isolates, which confirmed their ability to prevent the growth of colistin-resistant isolates (Supplemental Table S2). […] Also of interest was the finding that while relacidine B (4a) induced <1% hemolysis, a substitution of either the L-Ala or L-Ser to D-Ala or D-Ser increased hemolytic activity to 8–12%. […] The greater hydrolytic stability of relacidine B would appear to be attributable to the increased steric bulk of the Ala side chain next to the ester linkage (compared with the methylene of Gly in relacidine A), which may hinder the nucleophilic attack of water at the ester carbonyl.
(§2) Colistin sulfate was purchased from Activate Scientific. Kanamycin monosulfate was purchased from MP Biomedicals. E. coli ATCC 25922, S. aureus USA300 (ATCC BAA1717), and K. pneumoniae ATCC 13883 belong to the American Type Culture Collection (ATCC). P. aeruginosa PAO1 was kindly provided by L.H.C. Quarles Van Ufford of Utrecht University, Utrecht, The Netherlands. E. coli ATCC 25922 MCR-1 was transfected in-house using the pGDP2-MCR1 plasmid kindly provided by Yong-Xin Li of The University of Hong Kong, Hong Kong, China. Sheep blood agar plates (ref. PB5039A) were purchased from Thermo Scientific. Tryptic soy broth (ref. 02-200-500) was purchased from Scharlab. Mueller-Hinton broth (ref. X927.1) was purchased from Carl Roth. Polypropylene 96-wells plates (ref. 3879) were purchased from Corning.
(§3) MICs were determined according to Clinical and Standards Laboratory Institute (CLSI) guidelines. Blood agar plates were inoculated with glycerol stocks of E. coli ATCC 25922, K. pneumoniae ATCC 13883, P. aeruginosa PAO1, and S. aureus USA300. The inoculated agar plates were then incubated for 16 h at 37 °C. Individually grown colonies were subsequently used to inoculate 5 mL aliquots of tryptic soy broth (TSB) that were then incubated at 37 °C with shaking at 220 rpm. E. coli 25922 MCR-1 glycerol stock was used to inoculate 5 mL of TSB supplemented with kanamycin that was then incubated for 16 h at 37 °C with shaking at 220 rpm. The next day, the culture was diluted 100-fold in TSB supplemented with kanamycin and incubated at 37 °C with shaking at 220 rpm. In parallel, the lipopeptide antibiotic DMSO stocks to be assessed were serially diluted with Mueller Hinton broth (MHB) in polypropylene 96-well plates (50 μL in each well). Colistin sulfate stocks were dissolved in water before being diluted with MHB. Aliquots of the inoculated TSB were incubated until an OD600 of around 0.5 was reached. The bacterial suspensions were then diluted with MHB (2 × 10^5 cfu mL^–1) and added to the microplates containing the test compounds (50 μL to each well). The well plates were sealed with an adhesive membrane, and after 18 h of incubation at 37 °C with shaking at 600 rpm, the wells were visually inspected for bacterial growth. MIC values reported are based on three technical replicates and defined as the lowest concentration of the compound that prevented visible growth of bacteria.

S. aureus USA300 = format: cell-based; conditions: USA300, 18 h
Experimental: as §1, §2, §3

P. aeruginosa PAO1 = format: cell-based; conditions: PAO1, 18 h
Experimental: as §1, §2, §3

K. pneumoniae ATCC 13883 = format: cell-based; conditions: ATCC 13883, 18 h
Experimental: as §1, §2, §3

E. coli ATCC 25922 = format: cell-based; conditions: ATCC 25922, 18 h
Experimental: as §1, §2, §3

A. baumannii NCTC 13304 = format: cell-based; conditions: NCTC 13304, 18 h
Experimental: (§4) VIII. Antimicrobial testing
(§5) Table S2. Minimum inhibitory concentrations (MICs) determined against panel of previously characterized colistin-resistant A. baumannii clinical isolates5
(§6) Strain Relacidine A (3a) Relacidine B (4a) Relacidamide (5) Colistin […]
(§7) aMIC values given in µg/ml.
(§8) All minimum inhibitory concentrations were determined according to Clinical and Standards Laboratory Institute (CLSI) guidelines. Blood agar plates were inoculated from glycerol stocks of the different A. baumannii strains used and then incubated for 16 h at 37 °C . Individually grown colonies were subsequently used to inoculate 5 mL aliquots of TSB that were then incubated at 37 °C. In parallel, the lipopeptide antibiotics DMSO stocks to be assessed were serially diluted with cation-adjusted MHB in polypropylene 96-well plates (50 µL in each well). Colistin sulfate stocks were dissolved in water before being diluted with cation-adjusted MHB. The A. baumannii inoculated TSB aliquots were incubated until an OD600 of around 0.5 was reached. The bacterial suspensions were then diluted with cation-adjusted MHB (2 x 10^5 CFU mL-1) and added to the microplates containing the test compounds (50 µL to each well). The well-plates were sealed with an adhesive membrane and after 18 h of incubation at 37 °C visually inspected for bacterial growth. MIC values reported are based on three technical replicates and defined as the lowest concentration of the compound that prevented visible

A. baumannii HUMC1 = format: cell-based; conditions: HUMC1, 18 h
Experimental: as §4, §5, §6, §7, §8

A. baumannii NCTC 13420 = format: cell-based; conditions: NCTC 13420, 18 h
Experimental: as §4, §5, §6, §7, §8

A. baumannii BV173 = format: cell-based; conditions: BV173, 18 h
Experimental: as §4, §5, §6, §7, §8

A. baumannii LAC-4 = format: cell-based; conditions: LAC-4, 18 h
Experimental: as §4, §5, §6, §7, §8

A. baumannii BV94 = format: cell-based; conditions: BV94, 18 h
Experimental: as §4, §5, §6, §7, §8

A. baumannii ATCC 17978 = format: cell-based; conditions: ATCC 17978, 18 h
Experimental: as §4, §5, §6, §7, §8

A. baumannii BV95 = format: cell-based; conditions: BV95, 18 h
Experimental: as §4, §5, §6, §7, §8

A. baumannii BV172 = format: cell-based; conditions: BV172, 18 h
Experimental: as §4, §5, §6, §7, §8

[1] = human serum (obtained from Sigma Aldrich, product number: H4522); conditions: 37 °C, up to 24 h

Compound	MIC E. coli ATCC 25922 mcr-1 (E. coli ATCC 25922 mcr-1) [µg/mL]	MIC S. aureus USA300 (S. aureus USA300) [µg/mL]	MIC P. aeruginosa PAO1 (P. aeruginosa PAO1) [µg/mL]	MIC K. pneumoniae ATCC 13883 (K. pneumoniae ATCC 13883) [µg/mL]	MIC E. coli ATCC 25922 (E. coli ATCC 25922) [µg/mL]	MIC A. baumannii NCTC 13304 (A. baumannii NCTC 13304) [µg/mL]	MIC A. baumannii HUMC1 (A. baumannii HUMC1) [µg/mL]	MIC A. baumannii NCTC 13420 (A. baumannii NCTC 13420) [µg/mL]	MIC A. baumannii BV173 (A. baumannii BV173) [µg/mL]	MIC A. baumannii LAC-4 (A. baumannii LAC-4) [µg/mL]	MIC A. baumannii BV94 (A. baumannii BV94) [µg/mL]	MIC A. baumannii ATCC 17978 (A. baumannii ATCC 17978) [µg/mL]	MIC A. baumannii BV95 (A. baumannii BV95) [µg/mL]	MIC A. baumannii BV172 (A. baumannii BV172) [µg/mL]	not cleaved [1]
CCC(C)CCC(=O)N[C@H](CO)C(=O)N[C@H](Cc1ccc(O)cc1)C(=O)N[C@H](Cc1c[nH]c2ccccc12)C(=O)N[C@H](CCCN)C(=O)N[C@@H](CCCN)C(=O)NCC(=O)N[C@H](CCCN)C(=O)N[C@@H](Cc1c[nH]c2ccccc12)C(=O)N[C@@H]1C(=O)N[C@@H]([C@@H](C)CC)C(=O)NCC(=O)N[C@@H](CO)C(=O)N[C@H](C)C(=O)O[C@@H]1C (stereo partly drawn) [4b, D-Ala13, L-Ser12-Relacidine B] ({Hexanoyl(4ξ-Me)}-[dS][dY][dW][dOrn][Orn]G[dOrn]WTIGS[dA]; ester 9-C)	2 to 4	>32	4 (≈ 2.56 µM)	4 (≈ 2.56 µM)	2 (≈ 1.28 µM)	–	–	–	–	–	–	–	–	–	–
CCC(C)CCC(=O)N[C@H](CO)C(=O)N[C@H](Cc1ccc(O)cc1)C(=O)N[C@H](Cc1c[nH]c2ccccc12)C(=O)N[C@H](CCCN)C(=O)N[C@@H](CCCN)C(=O)NCC(=O)N[C@H](CCCN)C(=O)N[C@@H](Cc1c[nH]c2ccccc12)C(=O)N[C@@H]1C(=O)N[C@@H]([C@@H](C)CC)C(=O)NCC(=O)N[C@@H](CO)C(=O)NCC(=O)O[C@@H]1C (stereo partly shown) [3a, Relacidine A] ({Hexanoyl(4ξ-Me)}-[dS][dY][dW][dOrn][Orn]G[dOrn]WTIGSG; ester 9-C)	2 to 4	>32	4 (≈ 2.58 µM)	4 (≈ 2.58 µM)	2 (≈ 1.29 µM)	4 (≈ 2.58 µM)	16 (≈ 10.3 µM)	8 (≈ 5.16 µM)	8 (≈ 5.16 µM)	4 (≈ 2.58 µM)	8 (≈ 5.16 µM)	8 (≈ 5.16 µM)	8 (≈ 5.16 µM)	16 (≈ 10.3 µM)	–
CCC(C)CCC(=O)N[C@H](CO)C(=O)N[C@H](Cc1ccc(O)cc1)C(=O)N[C@H](Cc1c[nH]c2ccccc12)C(=O)N[C@H](CCCN)C(=O)N[C@@H](CCCN)C(=O)NCC(=O)N[C@H](CCCN)C(=O)N[C@@H](Cc1c[nH]c2ccccc12)C(=O)N[C@@H]1C(=O)N[C@@H]([C@@H](C)CC)C(=O)NCC(=O)N[C@H](CO)C(=O)N[C@@H](C)C(=O)O[C@@H]1C (stereo partly drawn) [4c, L-Ala13, D-Ser12-Relacdine B] ({Hexanoyl(4ξ-Me)}-[dS][dY][dW][dOrn][Orn]G[dOrn]WTIG[dS]A; ester 9-C)	1 to 2	>32	4 (≈ 2.56 µM)	2 to 4	1 to 2	–	–	–	–	–	–	–	–	–	–
CCC(C)CCC(=O)N[C@H](CO)C(=O)N[C@H](Cc1ccc(O)cc1)C(=O)N[C@H](Cc1c[nH]c2ccccc12)C(=O)N[C@H](CCCN)C(=O)N[C@@H](CCCN)C(=O)NCC(=O)N[C@H](CCCN)C(=O)N[C@@H](Cc1c[nH]c2ccccc12)C(=O)N[C@@H]1C(=O)N[C@@H]([C@@H](C)CC)C(=O)NCC(=O)N[C@H](CO)C(=O)NCC(=O)O[C@@H]1C (stereo partly drawn) [3b, D-Ser12-Relacidine A] ({Hexanoyl(4ξ-Me)}-[dS][dY][dW][dOrn][Orn]G[dOrn]WTIG[dS]G; ester 9-C)	4 (≈ 2.58 µM)	>32	2 (≈ 1.29 µM)	4 (≈ 2.58 µM)	2 to 4	–	–	–	–	–	–	–	–	–	–
CCC(C)CCC(=O)N[C@H](CO)C(=O)N[C@H](Cc1ccc(O)cc1)C(=O)N[C@H](Cc1c[nH]c2ccccc12)C(=O)N[C@H](CCCN)C(=O)N[C@@H](CCCN)C(=O)NCC(=O)N[C@H](CCCN)C(=O)N[C@@H](Cc1c[nH]c2ccccc12)C(=O)N[C@@H]1C(=O)N[C@@H]([C@@H](C)CC)C(=O)NCC(=O)N[C@@H](CO)C(=O)N[C@@H](C)C(=O)O[C@@H]1C (stereo partly shown) [4a, Relacidine B] ({Hexanoyl(4ξ-Me)}-[dS][dY][dW][dOrn][Orn]G[dOrn]WTIGSA; ester 9-C)	2 (≈ 1.28 µM)	>32	4 (≈ 2.56 µM)	4 (≈ 2.56 µM)	1 (≈ 0.639 µM)	4 (≈ 2.56 µM)	8 (≈ 5.12 µM)	16 (≈ 10.2 µM)	16 (≈ 10.2 µM)	8 (≈ 5.12 µM)	16 (≈ 10.2 µM)	4 (≈ 2.56 µM)	8 (≈ 5.12 µM)	16 (≈ 10.2 µM)	–
CCC(C)CCC(=O)N[C@H](CO)C(=O)N[C@H](Cc1ccc(O)cc1)C(=O)N[C@H](Cc1c[nH]c2ccccc12)C(=O)N[C@H](CCCN)C(=O)N[C@@H](CCCN)C(=O)NCC(=O)N[C@H](CCCN)C(=O)N[C@@H](Cc1c[nH]c2ccccc12)C(=O)N[C@@H]1C(=O)N[C@@H]([C@@H](C)CC)C(=O)NCC(=O)N[C@H](CO)C(=O)N[C@H](C)C(=O)O[C@@H]1C (stereo partly drawn) [4d, D-Ala13, D-Ser12-Relacdine B] ({Hexanoyl(4ξ-Me)}-[dS][dY][dW][dOrn][Orn]G[dOrn]WTIG[dS][dA]; ester 9-C)	2 to 4	>32	8 (≈ 5.12 µM)	2 to 4	2 (≈ 1.28 µM)	–	–	–	–	–	–	–	–	–	–
D-Ser1 D-Tyr2 D-Trp3 D-Orn4 Orn5 Gly6 D-Orn7 Trp8 Thr9 Ile10 Gly11 Ser12 Ala13 Lipid	–	–	–	–	–	–	–	–	–	–	–	–	–	–	highly resistant to degradation in human serum even after 24 h of incubation
